# Biological target: T1, N-type Ca2+ channels in IMR-32 cells (Homo sapiens, UniProt Q00975)
# T1 construct: host or cells: IMR-32 cells, differentiated with dibutyryl cAMP and bromodeoxyuridine
# Experiment: Inhibition of N-type calcium flux in IMR-32 cells (Indo-1 fluorescence, nitrendipine present)
# Type: cell-based
# Conditions: 1 μM
# Experimental: Measurement of N-type Ca^2+ Channel Blocking Potencies of Compounds in IMR-32 Cells Using the Fluorescent Ca^2+ Indicator Indo-1
# IMR-32 cells are a human tumoral cell line of neural origin. […] Calcium flux into these cells may be induced by stimulation with elevated potassium concentrations. The L-channel component of calcium flux may be blocked by adding 5 μM nitrendipine. The remaining component of calcium entry into the IMR-32 cells is due to calcium flux through N-type calcium channels. Intracellular calcium concentrations are measured using the fluorescent calcium indicator Indo 1. The effect of drug concentration on calcium uptake is studied.
# The IMR-32 cell line was obtained from the American Type Culture Collection (Rockville, Md.). Cells were grown in Eagle's Minimum Essential Medium with Eagle's salts supplemented with 10% fetal bovine serum, 2 mM L-Gln and antibiotic/antimycotic mixture (Gibco). […] After 7 to 13 days of differentiation, cells were detached using 0.5 mM EDTA and loaded with 5 μM Indo-1 acetoxymethyl ester (Molecular Probes, Eugene, OR) at […] for 45 minutes. Loaded cells were washed twice, resuspended (˜10^7 cells/mL) in assay buffer (10 mM HEPES/Tris pH 7.4 in Hank's Balanced Salt Solution without bicarbonate or phenol red containing 0.5% bovine serum albumin) and kept on ice until use. Fluorescence measurements were carried out in a Photon Technology International (PTI, South Brunswick, N.J.) Model RF-F3004 spectrofluorometer with dual emission monochromators using excitation at 350 nm and emission at 400 and 490 nm. The instrument was equipped with a thermostated cuvette holder with stirring capabilities as well as with a computer-controlled pump which allowed for reagent addition during measurement. Instrument control and data collection was done by PTI's OSCAR software running on an IBM compatible computer. […] Samples were incubated for 10 minutes at 30° C. and then aliquoted into three 10×10 mm disposable acrylic cuvettes. Emission signals at 400 and 490 nm were acquired from each cuvette at 30° C. for 50 seconds. At 20 seconds after the start of reading, cells were depolarized by the addition of 160 μL of stimulation solution (1M KCl, 68 mM CaCl2) to the cuvette via the computer-controlled pump. Ratio of dual emission signals (400 nm/490 nm), which is proportional to intracellular Ca^2+ concentration, was plotted against time, and the difference between maximal response after stimulation and basal value (before stimulation) was determined. Values obtained in this way were plotted as a function of drug concentration. IC50 values of test compounds were calculated by fitting a four-parameter logistic function to the data using the least squares method.
# T1 sequence (Q00975 whole entry): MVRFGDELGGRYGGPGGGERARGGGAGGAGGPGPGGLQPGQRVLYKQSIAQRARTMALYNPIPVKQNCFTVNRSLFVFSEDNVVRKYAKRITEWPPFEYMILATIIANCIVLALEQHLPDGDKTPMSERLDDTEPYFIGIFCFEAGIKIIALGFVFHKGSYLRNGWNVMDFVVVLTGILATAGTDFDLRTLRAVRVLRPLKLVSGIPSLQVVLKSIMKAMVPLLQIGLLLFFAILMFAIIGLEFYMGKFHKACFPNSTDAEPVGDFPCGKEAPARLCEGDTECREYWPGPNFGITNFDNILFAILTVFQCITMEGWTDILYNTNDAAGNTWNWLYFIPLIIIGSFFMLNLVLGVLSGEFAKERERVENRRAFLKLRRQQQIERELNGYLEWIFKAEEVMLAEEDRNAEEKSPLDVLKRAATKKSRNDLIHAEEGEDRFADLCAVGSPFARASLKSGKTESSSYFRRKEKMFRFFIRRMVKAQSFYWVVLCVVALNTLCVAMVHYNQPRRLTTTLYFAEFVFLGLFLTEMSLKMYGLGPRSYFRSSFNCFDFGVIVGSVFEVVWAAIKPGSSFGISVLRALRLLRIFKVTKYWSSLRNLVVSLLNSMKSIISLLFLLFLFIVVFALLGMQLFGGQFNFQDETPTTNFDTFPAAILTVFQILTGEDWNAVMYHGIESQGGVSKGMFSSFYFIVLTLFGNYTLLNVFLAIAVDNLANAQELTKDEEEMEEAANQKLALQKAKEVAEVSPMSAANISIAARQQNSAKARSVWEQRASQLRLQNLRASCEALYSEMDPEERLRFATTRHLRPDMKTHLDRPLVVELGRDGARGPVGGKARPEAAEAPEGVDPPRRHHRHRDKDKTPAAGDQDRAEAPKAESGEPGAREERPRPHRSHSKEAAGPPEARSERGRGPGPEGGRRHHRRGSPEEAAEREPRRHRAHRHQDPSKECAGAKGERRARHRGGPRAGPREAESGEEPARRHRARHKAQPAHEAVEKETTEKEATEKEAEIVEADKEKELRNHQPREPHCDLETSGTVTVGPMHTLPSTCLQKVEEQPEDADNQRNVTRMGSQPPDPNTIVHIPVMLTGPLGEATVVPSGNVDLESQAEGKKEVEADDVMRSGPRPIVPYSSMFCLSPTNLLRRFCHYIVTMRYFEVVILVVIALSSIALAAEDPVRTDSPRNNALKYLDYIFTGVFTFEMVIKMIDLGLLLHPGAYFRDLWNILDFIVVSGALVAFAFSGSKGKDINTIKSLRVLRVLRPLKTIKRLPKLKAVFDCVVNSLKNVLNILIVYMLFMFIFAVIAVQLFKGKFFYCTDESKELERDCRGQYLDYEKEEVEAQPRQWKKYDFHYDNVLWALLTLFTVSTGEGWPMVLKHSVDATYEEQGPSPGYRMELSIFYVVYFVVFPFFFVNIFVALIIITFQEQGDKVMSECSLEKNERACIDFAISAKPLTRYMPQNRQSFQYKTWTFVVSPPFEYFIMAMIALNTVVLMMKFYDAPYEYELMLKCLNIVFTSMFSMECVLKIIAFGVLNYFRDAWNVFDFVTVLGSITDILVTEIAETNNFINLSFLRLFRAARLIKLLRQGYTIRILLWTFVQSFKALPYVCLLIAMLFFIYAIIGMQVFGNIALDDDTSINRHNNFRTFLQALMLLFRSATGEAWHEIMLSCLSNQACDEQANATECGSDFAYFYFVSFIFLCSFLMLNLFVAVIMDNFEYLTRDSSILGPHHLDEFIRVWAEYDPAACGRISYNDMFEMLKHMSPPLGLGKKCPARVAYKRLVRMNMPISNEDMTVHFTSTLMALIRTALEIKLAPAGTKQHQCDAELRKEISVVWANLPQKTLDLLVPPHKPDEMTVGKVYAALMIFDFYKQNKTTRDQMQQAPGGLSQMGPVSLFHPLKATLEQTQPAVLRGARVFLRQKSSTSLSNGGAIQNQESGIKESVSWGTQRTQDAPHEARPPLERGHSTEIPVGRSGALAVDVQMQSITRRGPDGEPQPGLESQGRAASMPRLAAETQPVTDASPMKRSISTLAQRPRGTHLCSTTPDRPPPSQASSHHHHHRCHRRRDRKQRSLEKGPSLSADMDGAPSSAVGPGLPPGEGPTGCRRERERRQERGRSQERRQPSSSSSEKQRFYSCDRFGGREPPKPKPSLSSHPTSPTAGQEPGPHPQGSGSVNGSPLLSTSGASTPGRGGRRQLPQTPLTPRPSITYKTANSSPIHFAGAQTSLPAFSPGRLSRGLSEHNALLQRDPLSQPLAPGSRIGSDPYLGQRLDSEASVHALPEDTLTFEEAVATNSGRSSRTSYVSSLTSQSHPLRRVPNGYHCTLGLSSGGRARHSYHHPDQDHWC
# T1 sequence (P54289 25-956 partner limits assumed): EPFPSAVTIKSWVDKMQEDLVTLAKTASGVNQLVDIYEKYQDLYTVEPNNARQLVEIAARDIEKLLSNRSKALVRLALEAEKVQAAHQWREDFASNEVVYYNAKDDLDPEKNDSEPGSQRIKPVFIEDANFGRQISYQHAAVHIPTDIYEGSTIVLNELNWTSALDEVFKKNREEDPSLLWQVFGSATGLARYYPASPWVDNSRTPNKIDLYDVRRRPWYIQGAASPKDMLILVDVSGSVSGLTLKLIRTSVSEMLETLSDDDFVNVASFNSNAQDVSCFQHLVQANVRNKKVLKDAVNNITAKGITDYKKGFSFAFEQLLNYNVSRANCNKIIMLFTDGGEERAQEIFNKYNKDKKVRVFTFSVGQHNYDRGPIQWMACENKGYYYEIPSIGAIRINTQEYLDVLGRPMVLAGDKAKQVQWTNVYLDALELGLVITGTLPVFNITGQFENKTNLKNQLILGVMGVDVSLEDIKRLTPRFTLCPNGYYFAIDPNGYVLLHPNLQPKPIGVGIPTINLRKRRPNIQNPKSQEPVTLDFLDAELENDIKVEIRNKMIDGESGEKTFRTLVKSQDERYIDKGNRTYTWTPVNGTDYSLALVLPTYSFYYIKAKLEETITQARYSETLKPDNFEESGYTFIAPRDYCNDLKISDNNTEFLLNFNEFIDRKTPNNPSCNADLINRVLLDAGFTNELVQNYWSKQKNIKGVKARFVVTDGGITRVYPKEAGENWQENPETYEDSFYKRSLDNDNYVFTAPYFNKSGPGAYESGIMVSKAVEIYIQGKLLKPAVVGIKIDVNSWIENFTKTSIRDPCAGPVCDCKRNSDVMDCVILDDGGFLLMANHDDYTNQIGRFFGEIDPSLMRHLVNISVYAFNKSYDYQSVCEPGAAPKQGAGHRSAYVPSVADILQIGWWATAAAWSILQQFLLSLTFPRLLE
# T1 sequence (P54289 957-1103 partner limits assumed): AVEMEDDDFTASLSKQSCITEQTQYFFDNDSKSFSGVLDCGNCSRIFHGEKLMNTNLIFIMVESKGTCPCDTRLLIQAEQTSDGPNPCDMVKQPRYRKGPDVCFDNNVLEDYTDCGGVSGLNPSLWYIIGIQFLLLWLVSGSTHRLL
# T1 sequence (P54284 whole entry partner): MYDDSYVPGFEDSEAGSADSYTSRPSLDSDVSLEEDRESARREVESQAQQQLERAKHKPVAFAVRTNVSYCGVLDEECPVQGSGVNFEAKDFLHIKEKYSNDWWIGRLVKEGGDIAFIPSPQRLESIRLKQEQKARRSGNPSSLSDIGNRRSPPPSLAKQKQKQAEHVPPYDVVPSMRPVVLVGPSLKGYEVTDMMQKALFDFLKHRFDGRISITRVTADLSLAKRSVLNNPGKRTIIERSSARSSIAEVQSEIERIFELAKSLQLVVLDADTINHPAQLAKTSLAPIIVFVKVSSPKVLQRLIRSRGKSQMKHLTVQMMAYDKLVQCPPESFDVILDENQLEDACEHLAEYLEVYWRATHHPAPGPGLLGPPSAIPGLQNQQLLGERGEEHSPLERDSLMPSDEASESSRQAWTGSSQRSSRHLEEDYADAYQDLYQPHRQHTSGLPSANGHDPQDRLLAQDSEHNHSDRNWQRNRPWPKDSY
row,SMILES,Inhibition of Calcium Flux in IMR-32 Cells % Inhibition at 1 μM
1,"CC(C)C[C@H](NC(=O)Nc1ccc(Cl)cc1Cl)C(=O)N[C@@H](Cc1ccc(OCc2ccccc2)cc1)C(=O)OC(C)(C)C (relative stereo) [Example 82, [S-(R*,R*)]-3-(4-Benzyloxy-phenyl)-2-{2-[3-(2,4-dichloro-phenyl)-ureido]-4-methyl-pentanoylamino}-propionic acid tert-butyl ester]",55%
2,"CC(C)C[C@H](NC(=O)Nc1cc(C(F)(F)F)cc(C(F)(F)F)c1)C(=O)N[C@@H](Cc1ccc(OCc2ccccc2)cc1)C(=O)OC(C)(C)C (relative stereo) [Example 83, [S-(R*,R*)]-3-(4-Benzyloxy-phenyl)-2-{2-[3-(3,5-bis-trifluoromethyl-phenyl)-ureido]-4-methyl-pentanoylamino}-propionic acid tert-butyl ester]",19%
3,"CC(C)C[C@H](NC(=O)Nc1ccc(Br)cc1)C(=O)N[C@@H](Cc1ccc(OCc2ccccc2)cc1)C(=O)OC(C)(C)C (relative stereo) [Example 84, [S-(R*,R*)]-3-(4-Benzyloxy-phenyl)-2-{2-[3-(^4-bromo-phenyl)-ureido]-4-methyl-pentanoylamino}-propionic acid tert-butyl ester]",49%
4,"CC(C)C[C@H](NC(=O)Nc1ccc(Cl)c(Cl)c1)C(=O)N[C@@H](Cc1ccc(OCc2ccccc2)cc1)C(=O)OC(C)(C)C (relative stereo) [Example 85, [S-(R*,R*)]-3-(4-Benzyloxy-phenyl)-2-{2-[3-(3,4-dichloro-phenyl)-ureido]-4-methyl-pentanoylamino}-propionic acid tert-butyl ester]",30%
5,"CC(C)C[C@H](NC(=O)Nc1cc(Cl)cc(Cl)c1)C(=O)N[C@@H](Cc1ccc(OCc2ccccc2)cc1)C(=O)OC(C)(C)C (relative stereo) [Example 86, [S-(R*,R*)]-3-(4-Benzyloxy-phenyl)-2-{2-[3-(3,5-dichloro-phenyl)-ureido]-4-methyl-pentanoylamino}-propionic acid tert-butyl ester]",40%
6,"CC(C)C[C@H](NC(=O)NC(C)C)C(=O)N[C@@H](Cc1ccc(OCc2ccccc2)cc1)C(=O)OC(C)(C)C (relative stereo) [Example 87, [S-(R*,R*)]-3-(4-Benzyloxy-phenyl)-2-[2-(3-isopropyl-ureido)-4-methyl-pentanoylamino]-propionic acid tert-butyl ester]",37%
7,"CNC(=O)N[C@@H](CC(C)C)C(=O)N[C@@H](Cc1ccc(OCc2ccccc2)cc1)C(=O)OC(C)(C)C (relative stereo) [Example 88, [S-(R*,R*)]-3-(4-Benzyloxy-phenyl)-2-[4-methyl-2-(3-methyl-ureido)-pentanoylamino]-propionic acid tert-butyl ester]",30%
8,"CCNC(=O)N[C@@H](CC(C)C)C(=O)N[C@@H](Cc1ccc(OCc2ccccc2)cc1)C(=O)OC(C)(C)C (relative stereo) [Example 89, [S-(R*,R*)]-3-(4-Benzyloxy-phenyl)-2-[2-(3-ethyl-ureido)-4-methyl-pentanoylamino]-propionic acid tert-butyl ester]",30%
9,"CC(C)C[C@H](NC(=O)c1ccco1)C(=O)C[C@H](Cc1ccc(OCc2ccccc2)cc1)C(=O)OC(C)(C)C (relative stereo) [Example 90, [S-(R*,R*)]-2-(4-Benzyloxy-benzyl)-5-[(furan-2-carbonyl)-amino]-7-methyl-4-oxo-octanoic acid tert-butyl ester]",37%
10,"CCOc1ccc(C(=O)N[C@@H](CC(C)C)C(=O)N[C@@H](Cc2ccc(OCc3ccccc3)cc2)C(=O)OC(C)(C)C)cc1 (relative stereo) [Example 91, [S-(R*,R*)]-3-(4-Benzyloxy-phenyl)-2-[2-(4-ethoxy-benzoylamino)-4-methyl-pentanoylamino]-propionic acid tert-butyl ester]",34%
11,"CC(C)C[C@H](NC(=O)c1ccc(C(C)(C)C)cc1)C(=O)N[C@@H](Cc1ccc(OCc2ccccc2)cc1)C(=O)OC(C)(C)C (relative stereo) [Example 93, [S-(R*,R*)]-3-(4-Benzyloxy-phenyl)-2-[2-(4-tert-butyl-benzoylamino)-4-methyl-pentanoylamino]-propionic acid tert-butyl ester]",17%
12,"CC(C)C[C@H](NC(=O)c1ccc(F)cc1)C(=O)N[C@@H](Cc1ccc(OCc2ccccc2)cc1)C(=O)OC(C)(C)C (relative stereo) [Example 94, [S-(R*,R*)]-3-(4-Benzyloxy-phenyl)-2-[2-(4-fluoro-benzoylamino)-4-methyl-pentanoylamino]-propionic acid tert-butyl ester]",29%
13,"COc1ccc(C(=O)N[C@@H](CC(C)C)C(=O)N[C@@H](Cc2ccc(OCc3ccccc3)cc2)C(=O)OC(C)(C)C)cc1 (relative stereo) [Example 95, [S-(R*,R*)]-3-(4-Benzyloxy-phenyl)-2-[2-(4-methoxy-benzoylamino)-4-methyl-pentanoylamino]-propionic acid tert-butyl ester]",27%
14,"COc1cccc(C(=O)N[C@@H](CC(C)C)C(=O)N[C@@H](Cc2ccc(OCc3ccccc3)cc2)C(=O)OC(C)(C)C)c1 (relative stereo) [Example 96, [S-(R*,R*)]-3-(4-Benzyloxy-phenyl)-2-[2-(3-methoxy-benzoylamino)-4-methyl-pentanoylamino]-propionic acid tert-butyl ester]",33%
15,"CC(C)C[C@H](NC(=O)c1ccc2c(c1)OCO2)C(=O)N[C@@H](Cc1ccc(OCc2ccccc2)cc1)C(=O)OC(C)(C)C (relative stereo) [Example 97, [S-(R*,R*)]-2-{2-[(Benzo[1,3]dioxole-5-carbonyl)-amino]-4-methyl-pentanoylamino}-3-(4-benzyloxy-phenyl)-propionic acid tert-butyl ester]",30%
16,"COc1ccccc1C(=O)N[C@@H](CC(C)C)C(=O)N[C@@H](Cc1ccc(OCc2ccccc2)cc1)C(=O)OC(C)(C)C (relative stereo) [Example 98, [S-(R*,R*)]-3-(4-Benzyloxy-phenyl)-2-[2-(2-methoxy-benzoylamino)-4-methyl-pentanoylamino]-propionic acid tert-butyl ester]",34%
17,"CC(C)C[C@H](NC(=O)c1ccc2ccccc2c1)C(=O)N[C@@H](Cc1ccc(OCc2ccccc2)cc1)C(=O)OC(C)(C)C (relative stereo) [Example 99, [S-(R*,R*)]-3-(4-Benzyloxy-phenyl)-2-{4-methyl-2-[(naphthalene-2-carbonyl)-amino]pentanoylamino}-propionic acid tert-butyl ester]",19%
18,"COc1ccc(C(=O)N[C@@H](CC(C)C)C(=O)N[C@@H](Cc2ccc(OCc3ccccc3)cc2)C(=O)OC(C)(C)C)cc1OC (relative stereo) [Example 100, [S-(R*,R*)]-3-(4-Benzyloxy-phenyl)-2-[2-(3,4-dimethoxy-benzoylamino)-4-methyl-pentanoylamino]-propionic acid tert-butyl ester]",18%

# Same assay, conditions: 10 μM
row,SMILES,Inhibition of Calcium Flux in IMR-32 Cells % Inhibition at 10 μM
1,"CC(C)C[C@H](NC(=O)c1ccco1)C(=O)C[C@H](Cc1ccc(OCc2ccccc2)cc1)C(=O)OC(C)(C)C (relative stereo) [Example 90, [S-(R*,R*)]-2-(4-Benzyloxy-benzyl)-5-[(furan-2-carbonyl)-amino]-7-methyl-4-oxo-octanoic acid tert-butyl ester]",83%
2,"CCOc1ccc(C(=O)N[C@@H](CC(C)C)C(=O)N[C@@H](Cc2ccc(OCc3ccccc3)cc2)C(=O)OC(C)(C)C)cc1 (relative stereo) [Example 91, [S-(R*,R*)]-3-(4-Benzyloxy-phenyl)-2-[2-(4-ethoxy-benzoylamino)-4-methyl-pentanoylamino]-propionic acid tert-butyl ester]",48%
3,"CC(C)C[C@H](NS(=O)(=O)c1cccc2nsnc12)C(=O)C[C@H](Cc1ccc(OCc2ccccc2)cc1)C(=O)OC(C)(C)C (relative stereo) [Example 102, [S-(R*,R*)]-5-(Benzo[1,2,5]thiadiazole-4-sulfonylamino)-2-(4-benzyloxybenzyl)-7-methyl-4-oxo-octanoic acid tert-butyl ester]",75%

# From patent US6423689B1, “Peptidyl calcium channel blockers” (Warner-Lambert Company, priority 1997, dated 2002)
